“Also recorded” adds a separate entry of the source.
Tests used:
[1] = system: interaction of snRNA with E2F1; assay: Anti-E2F1 RNA immunoprecipitation (RIP), co-immunoprecipitating snRNA by qRT-PCR; assay type: cell-based; settings: 5 μM PRMT5 inhibitor; U2OS, HCT116 and MCF7 cells; FIGS. 3B, E and F
Procedure: B) U2OS cells were treated with 5 μM PRMT5 inhibitor (P5 inh) as indicated, prior to performing an anti-E2F1 RIP. Co-immunoprecipitating U6 (i) and U4 (ii) snRNAs were identified with specific primers by qRT-PCR. Input protein levels were determined by immunoblot (iii). n=3
E) HCT116 cells were treated with 5 μM PRMT5 inhibitor (P5 inh) where indicated, prior to performing an anti-E2F1 RIP. Co-immunoprecipitated U1 (i) and U6 (ii) snRNA were detected by qRT-PCR.
F) As above, though the experiment was performed in MCF7 cells.
A) U2OS cells (i) and HCT116 cells (ii) were transfected for 96 h with 25 nM non-targeting (siNT) or p100/TSN specific siRNA, prior to lysis in RIP buffer. Cell extracts were immunoprecipitated with E2F1 antibody and co-immunoprecipitating RNA was reverse transcribed prior to QPCR analysis with primers against U5 (i) and U6 (ii) snRNAs as indicated. Input protein levels were determined by immunoblot.
RNA was isolated from cells using TRIzol (Thermo Fisher) according to the manufacturer's instructions. 1 μg of total RNA was used for cDNA synthesis. For standard mRNA analysis oligo(d)T20 (Invitrogen) was added. […] Results were expressed as average (mean) fold change compared to control treatments using the ΔΔCt method from three biological repeat samples. […]

[2] = system: chromatin-associated HP1a; assay: ChIP with anti-HP1a antibody on the p73 promoter; assay type: cell-based; settings: PRMT5 inhibitor 24 h or 48 h; U2OS cells; FIG. 6B
Procedure: B) As above, though cells were treated with the PRMT5 inhibitor (P5 inh) for 24 h or 48 h as indicated. ChIP analysis was performed with anti-HP1a specific or control antibodies (i).
C) U2OS cells were transfected with SENP7 siRNA or non-targeting siRNA (siNT) for 96 h as indicated. Cells were then prepared for ChIP analysis as above (i).
(§1) ChIP was performed as described previously [(29) or (30)]. Antibodies used for immunoprecipitation were as follows: anti-E2F1 (C-20), anti-HA (16B12), anti-HP1α (NB110-40623, Novus Biologicals; RRID: AB_714949), anti-SUMO2/3 (8A2; Abcam; RRID: AB_1658424), non-specific rabbit or mouse IgG. The recovered DNA was analysed in triplicate by real-time QPCR as described (30, 31) on a MX3005P QPCR system using Brilliant III SYBR Green QPCR Master Mix according to the manufacturer's instructions. Results were expressed as average (mean) fold change compared to IgG control treatments using the ΔΔCt method from triplicate biological repeat samples. Alternatively, a standard curve was generated to calculate ChIP/input signals that were subsequently used to generate fold change values compared to IgG control. Error bars represent standard error unless otherwise indicated.

[3] = system: Mantle Cell Lymphoma; settings: in vitro and in vivo models of Mantle Cell Lymphoma; cited from earlier work
[4] = system: interaction between E2F1 and SENP7 V5 RNA; assay: Anti-E2F1 RIP, co-immunoprecipitating SENP7 V5 transcripts by qRT-PCR; assay type: cell-based; settings: 5 μM; HCT116 cells; FIG. 4C
Procedure: C) HCT116 cells were treated with 5 μM PRMT5 inhibitor (P5 inh) where indicated prior to performing an anti-E2F1 RIP. Co-immunoprecipitating SENP7 V5 transcripts were analysed by qRT-PCR.
RNA was isolated from cells using TRIzol (Thermo Fisher) according to the manufacturer's instructions. 1 μg of total RNA was used for cDNA synthesis. For standard mRNA analysis oligo(d)T20 (Invitrogen) was added. For splice variant analysis, RNA was DNAse treated (Sigma-Aldrich) prior to cDNA synthesis using random hexamers (Invitrogen). M-MLV reverse transcriptase (Promega) was used as per the manufacturer's instructions. qRT-PCR was carried out in triplicate using the indicated primer pairs and Brilliant III SYBR Green QPCR Master Mix (Stratagene) on an MX3005P (Agilent) QPCR instrument. Results were expressed as average (mean) fold change compared to control treatments using the ΔΔCt method from three biological repeat samples. GAPDH or actin primer sets were used as an internal calibrator. Error bars represent standard error unless otherwise indicated.
Cells were washed once with PBS before UV cross-linking at 900 mJ/cm^2 using a Stratalinker (Stratagene). RIP lysis buffer (50 mM Tris-HCl pH 8.0, 150 mM NaCl, 1 mM MgCl2, 10% glycerol [v/v], 1% NP-40 [v/v], 1 mM DTT, 0.2 mM sodium orthovanadate and protease inhibitor cocktails) was added directly to the plate, on ice. […]

[5] = system: chromatin-associated SUMOylation on the p73 promoter; assay: ChIP with anti-SUMO2/3 antibody on the p73 promoter; assay type: cell-based; settings: 5 μM, 72 h; U2OS cells; FIG. 6A
Procedure: as §1, with “A) U2OS cells were treated with 5 μM PRMT5 inhibitor (P5 inh) for 72 h where indicated, prior to ChIP analysis with anti-SUMO2/3 specific or control antibodies. Immunoprecipitated chromatin was analysed using primers specific for the E2F site in the p73 promoter (i). An RT-PCR was also performed to monitor the levels of p73 transcripts in the cell (ii). […] See also FIGS. 10F and 10G. ChIP was” for “ChIP was”

[6] = target: PRMT5 (Homo sapiens, UniProt O14744); settings: cited from earlier work
[7] = system: p73 transcripts; assay: RT-PCR of p73 transcripts in treated cells; assay type: cell-based; settings: 5 μM; U2OS and HCT116 cells; FIG. 6A, FIGS. 10F and G
Procedure: A) U2OS cells were treated with 5 μM PRMT5 inhibitor (P5 inh) for 72 h where indicated, prior to ChIP analysis with anti-SUMO2/3 specific or control antibodies. Immunoprecipitated chromatin was analysed using primers specific for the E2F site in the p73 promoter (i). An RT-PCR was also performed to monitor the levels of p73 transcripts in the cell (ii). […] See also FIGS. 10F and 10G. F) U2OS cells were treated with 5 μM PRMT5 inhibitor (P5 inh) as indicated, prior to RNA extraction and qRT-PCR analysis with primers recognising total p73 or CDC6 transcripts as indicated (i). […] 1 μg of total RNA was used for cDNA synthesis. For standard mRNA analysis oligo(d)T20 (Invitrogen) was added. For splice variant analysis, RNA was DNAse treated (Sigma-Aldrich) prior to cDNA synthesis using random hexamers (Invitrogen). M-MLV reverse transcriptase (Promega) was used as per the manufacturer's instructions. qRT-PCR was carried out in triplicate using the indicated primer pairs and Brilliant III SYBR Green QPCR Master Mix (Stratagene) on an MX3005P (Agilent) QPCR instrument. Results were expressed as average (mean) fold change compared to control treatments using the ΔΔCt method from three biological repeat samples. GAPDH or actin primer sets were used as an internal calibrator. Error bars represent standard error unless otherwise indicated.

[8] = system: SENP7 RNA variants; assay: qRT-PCR of SENP7 transcript variants in treated cells; assay type: cell-based; settings: 5 μM, 72 h; U2OS and HCT116 cells; FIGS. 4D and 4E
Procedure: D) U2OS cells were treated for 72 h with 5 μM PRMT5 inhibitor (P5 inh). RNA was then isolated from cells and analysed by qRT-PCR using primers targeting specific SENP7 transcript variants or total SENP7 RNA. […] E) As above, though the experiment was performed in HCT116 cells. n=4 RNA was isolated from cells using TRIzol (Thermo Fisher) according to the manufacturer's instructions. 1 μg of total RNA was used for cDNA synthesis. For standard mRNA analysis oligo(d)T20 (Invitrogen) was added. For splice variant analysis, RNA was DNAse treated (Sigma-Aldrich) prior to cDNA synthesis using random hexamers (Invitrogen). M-MLV reverse transcriptase (Promega) was used as per the manufacturer's instructions. qRT-PCR was carried out in triplicate using the indicated primer pairs and Brilliant III SYBR Green QPCR Master Mix (Stratagene) on an MX3005P (Agilent) QPCR instrument. Results were expressed as average (mean) fold change compared to control treatments using the ΔΔCt method from three biological repeat samples. GAPDH or actin primer sets were used as an internal calibrator. Error bars represent standard error unless otherwise indicated.

PRMT5, sequence (O14744 whole entry): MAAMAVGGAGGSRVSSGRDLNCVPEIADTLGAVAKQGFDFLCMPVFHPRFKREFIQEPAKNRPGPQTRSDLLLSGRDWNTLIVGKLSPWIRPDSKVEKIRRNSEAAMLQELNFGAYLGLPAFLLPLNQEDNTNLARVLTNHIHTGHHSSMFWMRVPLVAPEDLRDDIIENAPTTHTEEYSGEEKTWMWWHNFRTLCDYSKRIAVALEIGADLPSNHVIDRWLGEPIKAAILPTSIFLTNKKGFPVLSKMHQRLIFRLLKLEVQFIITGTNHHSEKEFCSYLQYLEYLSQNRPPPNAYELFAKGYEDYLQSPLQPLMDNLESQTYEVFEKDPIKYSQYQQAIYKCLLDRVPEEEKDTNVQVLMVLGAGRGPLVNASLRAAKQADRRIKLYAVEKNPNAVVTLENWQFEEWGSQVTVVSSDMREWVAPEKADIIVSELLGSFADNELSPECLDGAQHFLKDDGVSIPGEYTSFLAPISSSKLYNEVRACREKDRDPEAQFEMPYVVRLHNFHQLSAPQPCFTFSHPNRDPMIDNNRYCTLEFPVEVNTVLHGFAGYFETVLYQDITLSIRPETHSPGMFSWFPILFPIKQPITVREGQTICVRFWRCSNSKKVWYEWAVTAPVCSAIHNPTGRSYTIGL
PRMT5, sequence (Q9BQA1 whole entry partner): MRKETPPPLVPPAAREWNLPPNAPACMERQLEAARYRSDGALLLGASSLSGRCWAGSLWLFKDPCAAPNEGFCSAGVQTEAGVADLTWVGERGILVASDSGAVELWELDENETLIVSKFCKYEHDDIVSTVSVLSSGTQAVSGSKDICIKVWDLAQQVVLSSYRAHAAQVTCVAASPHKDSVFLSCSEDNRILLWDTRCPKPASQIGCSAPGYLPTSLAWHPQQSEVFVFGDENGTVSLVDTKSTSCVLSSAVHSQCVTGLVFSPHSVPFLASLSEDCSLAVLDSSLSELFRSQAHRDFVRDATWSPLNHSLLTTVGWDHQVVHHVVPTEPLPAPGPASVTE

Question: Which “interaction of snRNA with E2F1” value [1] does the source give for `O=C(NC[C@H](O)CN1CCc2ccccc2C1)c1cc(NC2COC2)ncn1` [EPZ015666] here?
Answer: absent

Question: What about the “association of HP1a with chromatin (p73 promoter)” value [2] of the same compound?
Answer: increased association

Question: What about the antiproliferative effects [3] of the same compound?
Answer: antiproliferative effects

Question: And the “interaction between E2F1 and V5 RNA” value [4]?
Answer: reduced

Question: What about the “chromatin-associated SUMOylation on the p73 promoter” value [5] of the same compound?
Answer: increase

Question: And the “inhibition of PRMT5” value [6]?
Answer: potent and selective inhibitor

Question: What about the “levels of transcription (p73)” value [7] of the same compound?
Answer: reduced levels

Question: What about the “level of the SENP7 V5 RNA variant” value [8] of the same compound?
Answer: lower level; also recorded: down-regulates

Question: What about the “level of the other SENP7 RNA variants” value [8] of the same compound?
Answer: increased
